Columns and labels:
anti-T4 Fab fragment = test: SPR (BIAcore T200) inhibition assay, immobilized T4-AP, affinity and specificity determination; type: binding, mouse; conditions: 2 nM anti-T4 Fab preincubated with analyte, T4-AP on CM5 chip, 2% DMSO-PBSP, triplicates
Description: T4-alkaline phosphatase was immobilized to the sensor surface and Kd values were determined by inhibition assay method.
T4-AP and AP (P5931, Sigma-Aldrich, St. Louis, Mo., USA), were diluted to 100 μg/mL concentration in 10 mM sodium acetate pH 4.0 (BR100351, GE Healthcare, Piscataway, N.J., USA). T4-AP and AP were immobilized to preconditioned CM5 chip using EDC/NHS—chemistry following manufacturer's instructions. Concentration of anti-T4 Fab fragment was calculated using theoretical extinction coefficient (ExPASy ProtParam tool, web.expasy.org/protparam) of the anti-T4 Fab fragment and by measuring the A280 with NanoDrop 2000c instrument (Thermo Disher Scientific, Waltham, Mass., USA). […] Flowrate was set to 30 μl/min in all cycle steps.
Preincubated mixtures were injected over the sensor chip surface for seven minutes and dissociated for 30 seconds. […] Data collection point was set to be 10 seconds after the start of dissociation phase. All sample series were run as triplicates, where a single sample series consisted from growing small molecule concentration in the preincubation mixture. Data was reference and blank subtracted. In addition, small differences in DMSO between the samples were compensated using DMSO solvent correction series, as recommended by instrument manufacturer GE Healthcare). Concentrations of free anti-T4 Fab fragments remaining in the preincubated mixtures were calculated by comparing the obtained responses against standard curve of anti-T4 Fab fragment. Affinity constants were calculated using BIAcore T200 Evaluation Software (GE Healthcare, Piscataway, N.J., USA) applying four-parameter logistic function. (See FIGS. 4A and B and Table 1.)

anti-T4 Fab = test: competitive ELISA, T4-BSA coated wells, 0.25 nM anti-T4 Fab pre-incubated with analyte; type: binding, mouse; conditions: for IC50: by ELISA assay, read-out: relative IC50
Description: Microtiter plate wells (Nunc, 436023) were coated with 100 μl of 4 μg/ml T4-BSA (Fitzgerald, 80-IT50) in PBS (15 mM phosphate, 150 mM NaCl, pH 7.3) for one hour at +37° C. with 600 rpm shaking. Wells were then washed three times with 300 μl PBS supplemented with 0.05% (v/v) Tween20 (Sigma-Aldrich, 93773-250G). Wells were blocked with 200 μl of Superblock® (Thermo Fisher Scientific, 37516) for 30 minutes in room temperature with 600 rpm shaking and washed as above. 100 μl of pre-incubated mixtures, containing 0.25 nM anti-T4 Fab and varying concentrations of L-thyroxine (T4) (Sigma-Aldrich, T2376) in PBSP (GE Healthcare, 28-9950-84) supplemented with 1% DMSO (v/v) (Sigma-Aldrich, D5879-100ML), were transferred to wells and incubated for 30 minutes with 600 rpm shaking in room temperature. Each sample had 12 replicates. Wells were washed as above and 100 μl of Goat anti-mouse Kappa-HRP (SoutherBiotech, 1050-05) diluted 1:1000 in Superblock was transferred to wells and incubation was carried out for 30 minutes at 600 rpm shaking in room temperature. Wells were washed as above and 100 μl of TMB Microwell Peroxidase Substrate System (2-C) (SeraCare, 50-76-00) was transferred to wells and enzymatic reaction was carried out for 30 minutes with 600 rpm shaking in room temperature. Reactions were stopped by transferring 100 μl of 1 M H3PO4 to the wells and measured at A450 using Varioskan (Thermo Fisher Scientific). Data was analysed with OriginPro 2017-software.
Assay was performed as in the previous paragraph (under title L-Thyroxine) except instead of T4 (Thyroxine) TIBPA (Tetraiodobisphenol A) was used.
Assay was performed as in the paragraph under title L-Thyroxine except instead of T4 (Thyroxine) TBBPA (Tetrabromobisphenol A) was used.
Assay was performed as in the paragraph under title L-Thyroxine except instead of T4 (Thyroxine) TCBPA (Tetrachlorobisphenol A) was used.
Assay was performed as in the paragraph under title L-Thyroxine except instead of T4 (Thyroxine) BPA (Bisphenol A) was used.

| KD, anti-T4 Fab (anti-T4 Fab fragment) | Compound | Kd (anti-T4 Fab fragment) [nM] | IC50 (anti-T4 Fab) [nM] | competition in competitive ELISA assay (anti-T4 Fab; high concentration (5 μM)) |
| --- | --- | --- | --- | --- |
|  | CC(C)(c1cc(I)c(O)c(I)c1)c1cc(I)c(O)c(I)c1 [TIBPA, Tetraiodobisphenol A] | 37.3 | 54 |  |
|  | N[C@@H](Cc1cc(I)c(Oc2cc(I)c(O)c(I)c2)c(I)c1)C(=O)O [Compound T4, 3,5,3′,5′-tetraiodothyronine] | 0.53 | 0.54 |  |
| no binding | CC(C)(c1ccc(O)cc1)c1ccc(O)cc1 [BPA, Bisphenol A] |  |  | No competition was observed |
| no binding | N[C@@H](Cc1ccc(Oc2ccc(O)cc2)cc1)C(=O)O [Compound T0] |  |  |  |
|  | CC(C)(c1cc(Cl)c(O)c(Cl)c1)c1cc(Cl)c(O)c(Cl)c1 [TCBPA, Tetrachlorobisphenol A] | 558 | 544 |  |
|  | CC(C)(c1cc(Br)c(O)c(Br)c1)c1cc(Br)c(O)c(Br)c1 [TBBPA, Tetrabromobisphenol A] | 69.2 | 74 |  |

Reference: patent publication US11578125B2, “Anti-thyroid hormone (T4) recombinant antibody or antigen binding fragment” (Teknologian tutkimuskeskus VTT Oy, priority 2018, dated 2023)
